Patent publication US10231954B2, “Neurodegenerative therapies” (LYTIX BIOPHARMA AS, priority 2014, dated 2019)

What was measured:
Type in all cases: biochemical
Details in all cases: 100 micromolar inhibitor concentration; 100 is no change
MAPKAP-K3 = MAPKAP-K3 (Homo sapiens, UniProt Q16644); test: Kinase profiling MAPKAP-K3
Source text: (§1) Any value less that 25 is considered to be highly significant inhibition.

DDR2 = biological target: T1, DDR2 (Homo sapiens, UniProt Q16832); test: Kinase profiling DDR2
T1 sequence (Q16832 22-855): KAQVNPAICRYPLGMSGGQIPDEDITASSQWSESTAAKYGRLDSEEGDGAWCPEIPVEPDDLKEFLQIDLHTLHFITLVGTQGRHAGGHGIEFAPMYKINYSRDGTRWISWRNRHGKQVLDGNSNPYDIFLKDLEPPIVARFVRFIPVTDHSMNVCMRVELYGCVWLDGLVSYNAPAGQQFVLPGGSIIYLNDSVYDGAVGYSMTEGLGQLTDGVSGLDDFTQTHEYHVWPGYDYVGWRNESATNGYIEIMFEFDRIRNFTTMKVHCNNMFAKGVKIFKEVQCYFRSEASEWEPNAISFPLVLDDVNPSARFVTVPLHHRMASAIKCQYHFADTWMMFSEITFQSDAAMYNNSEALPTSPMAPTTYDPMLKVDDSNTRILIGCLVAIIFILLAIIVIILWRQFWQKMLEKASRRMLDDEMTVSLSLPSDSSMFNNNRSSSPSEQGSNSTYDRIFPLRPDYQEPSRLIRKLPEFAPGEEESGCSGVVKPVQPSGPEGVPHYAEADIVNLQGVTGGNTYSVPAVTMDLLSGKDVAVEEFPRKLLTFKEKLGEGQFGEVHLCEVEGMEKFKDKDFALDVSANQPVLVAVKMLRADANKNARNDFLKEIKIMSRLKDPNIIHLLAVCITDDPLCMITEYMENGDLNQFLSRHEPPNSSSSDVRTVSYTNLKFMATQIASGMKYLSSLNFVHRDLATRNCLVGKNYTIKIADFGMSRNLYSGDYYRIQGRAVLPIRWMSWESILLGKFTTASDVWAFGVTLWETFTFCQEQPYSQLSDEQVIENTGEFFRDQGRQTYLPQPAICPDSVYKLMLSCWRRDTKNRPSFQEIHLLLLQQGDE
Source text: as §1

MARK2 = MARK2 (Homo sapiens, UniProt Q7KZI7); test: Kinase profiling MARK2
Sequence of MARK2 (Q7KZI7 whole entry, species assumed): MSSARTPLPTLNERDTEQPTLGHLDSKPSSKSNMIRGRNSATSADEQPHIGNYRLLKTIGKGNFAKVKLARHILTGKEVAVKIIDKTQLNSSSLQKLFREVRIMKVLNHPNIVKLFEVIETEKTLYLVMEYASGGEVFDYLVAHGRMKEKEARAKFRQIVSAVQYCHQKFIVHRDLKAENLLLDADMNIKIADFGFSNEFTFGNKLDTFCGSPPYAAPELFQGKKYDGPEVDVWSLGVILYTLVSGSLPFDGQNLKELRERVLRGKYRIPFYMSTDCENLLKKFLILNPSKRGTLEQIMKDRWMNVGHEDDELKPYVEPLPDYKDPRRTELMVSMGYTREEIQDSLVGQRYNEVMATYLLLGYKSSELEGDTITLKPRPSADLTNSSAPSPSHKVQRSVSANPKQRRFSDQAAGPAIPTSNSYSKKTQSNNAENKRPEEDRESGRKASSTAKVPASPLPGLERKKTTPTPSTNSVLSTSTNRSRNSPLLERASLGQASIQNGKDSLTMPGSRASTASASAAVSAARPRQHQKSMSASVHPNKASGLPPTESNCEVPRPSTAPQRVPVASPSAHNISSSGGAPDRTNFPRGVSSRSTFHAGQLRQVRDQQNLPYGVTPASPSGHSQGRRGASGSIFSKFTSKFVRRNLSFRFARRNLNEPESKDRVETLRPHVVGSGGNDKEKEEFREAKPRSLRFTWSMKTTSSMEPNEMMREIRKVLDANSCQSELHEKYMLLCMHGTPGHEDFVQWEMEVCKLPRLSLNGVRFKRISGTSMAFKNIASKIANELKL
Source text: as §1

TLK1 = biological target: T2, TLK1 (Homo sapiens, UniProt Q9UKI8); test: Kinase profiling TLK1
T2 sequence (Q9UKI8 1-766): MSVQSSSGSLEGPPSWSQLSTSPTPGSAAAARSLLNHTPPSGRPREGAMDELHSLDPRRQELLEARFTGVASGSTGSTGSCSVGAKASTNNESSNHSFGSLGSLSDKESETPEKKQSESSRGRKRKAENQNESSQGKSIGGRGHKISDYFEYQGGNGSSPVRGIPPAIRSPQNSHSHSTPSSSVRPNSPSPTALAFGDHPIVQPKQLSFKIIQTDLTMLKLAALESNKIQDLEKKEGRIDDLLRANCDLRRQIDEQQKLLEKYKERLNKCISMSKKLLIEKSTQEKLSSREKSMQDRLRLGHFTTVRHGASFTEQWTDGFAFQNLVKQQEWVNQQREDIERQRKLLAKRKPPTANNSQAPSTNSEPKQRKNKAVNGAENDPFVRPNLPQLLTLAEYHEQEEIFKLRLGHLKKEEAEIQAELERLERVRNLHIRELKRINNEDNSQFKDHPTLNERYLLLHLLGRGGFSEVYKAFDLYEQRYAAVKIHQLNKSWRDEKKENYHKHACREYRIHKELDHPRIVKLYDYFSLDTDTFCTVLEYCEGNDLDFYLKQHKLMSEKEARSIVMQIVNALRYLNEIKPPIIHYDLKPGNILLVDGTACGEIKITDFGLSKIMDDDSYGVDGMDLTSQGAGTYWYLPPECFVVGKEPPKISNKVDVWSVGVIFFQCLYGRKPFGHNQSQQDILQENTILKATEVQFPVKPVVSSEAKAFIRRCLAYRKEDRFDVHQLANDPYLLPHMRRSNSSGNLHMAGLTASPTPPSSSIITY
Source text: as §1

BRSK1 = biological target: T3, BRSK1 (Homo sapiens, UniProt Q8TDC3); test: Kinase profiling BRSK1
T3 sequence (Q8TDC3 1-778): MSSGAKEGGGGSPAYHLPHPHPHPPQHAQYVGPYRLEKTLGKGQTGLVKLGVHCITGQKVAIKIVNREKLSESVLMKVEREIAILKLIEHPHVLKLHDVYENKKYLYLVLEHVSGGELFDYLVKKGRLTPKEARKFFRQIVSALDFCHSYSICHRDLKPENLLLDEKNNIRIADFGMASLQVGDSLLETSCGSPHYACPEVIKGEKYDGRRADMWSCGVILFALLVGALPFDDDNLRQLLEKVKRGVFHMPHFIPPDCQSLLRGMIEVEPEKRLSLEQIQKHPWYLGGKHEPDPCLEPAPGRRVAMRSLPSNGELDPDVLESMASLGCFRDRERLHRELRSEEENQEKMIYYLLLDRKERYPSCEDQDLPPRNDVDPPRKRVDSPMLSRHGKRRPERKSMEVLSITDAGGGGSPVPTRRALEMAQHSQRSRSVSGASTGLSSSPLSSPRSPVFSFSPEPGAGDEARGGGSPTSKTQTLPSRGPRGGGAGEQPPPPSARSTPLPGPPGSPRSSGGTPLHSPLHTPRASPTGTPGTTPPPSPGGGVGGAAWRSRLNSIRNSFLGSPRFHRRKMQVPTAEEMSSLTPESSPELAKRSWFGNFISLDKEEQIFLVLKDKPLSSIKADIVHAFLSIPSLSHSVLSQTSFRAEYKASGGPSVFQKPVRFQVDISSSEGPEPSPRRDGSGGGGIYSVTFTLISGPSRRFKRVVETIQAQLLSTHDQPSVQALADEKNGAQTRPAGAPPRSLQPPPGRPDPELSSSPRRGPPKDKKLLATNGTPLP
Source text: as §1

CK1γ2 = CK1γ2 (Homo sapiens, UniProt P78368); test: Kinase profiling CK1γ2
Sequence of CK1γ2 (P78368 whole entry): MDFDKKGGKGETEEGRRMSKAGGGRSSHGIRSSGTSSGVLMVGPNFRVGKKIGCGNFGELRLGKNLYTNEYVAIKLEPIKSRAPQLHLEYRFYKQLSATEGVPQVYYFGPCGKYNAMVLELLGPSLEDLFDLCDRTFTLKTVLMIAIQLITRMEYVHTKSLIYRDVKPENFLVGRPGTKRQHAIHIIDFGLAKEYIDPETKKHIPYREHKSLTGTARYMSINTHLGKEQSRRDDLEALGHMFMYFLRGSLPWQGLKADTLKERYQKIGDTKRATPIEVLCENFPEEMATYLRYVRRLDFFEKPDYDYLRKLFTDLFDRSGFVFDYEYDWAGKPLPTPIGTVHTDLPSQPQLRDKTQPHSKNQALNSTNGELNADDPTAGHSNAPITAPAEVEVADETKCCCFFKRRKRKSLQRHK
Source text: as §1

MAP4K5 = MAP4K5 (Homo sapiens, UniProt Q9Y4K4); test: Kinase profiling MAP4K5
Sequence of MAP4K5 (Q9Y4K4 whole entry, species assumed): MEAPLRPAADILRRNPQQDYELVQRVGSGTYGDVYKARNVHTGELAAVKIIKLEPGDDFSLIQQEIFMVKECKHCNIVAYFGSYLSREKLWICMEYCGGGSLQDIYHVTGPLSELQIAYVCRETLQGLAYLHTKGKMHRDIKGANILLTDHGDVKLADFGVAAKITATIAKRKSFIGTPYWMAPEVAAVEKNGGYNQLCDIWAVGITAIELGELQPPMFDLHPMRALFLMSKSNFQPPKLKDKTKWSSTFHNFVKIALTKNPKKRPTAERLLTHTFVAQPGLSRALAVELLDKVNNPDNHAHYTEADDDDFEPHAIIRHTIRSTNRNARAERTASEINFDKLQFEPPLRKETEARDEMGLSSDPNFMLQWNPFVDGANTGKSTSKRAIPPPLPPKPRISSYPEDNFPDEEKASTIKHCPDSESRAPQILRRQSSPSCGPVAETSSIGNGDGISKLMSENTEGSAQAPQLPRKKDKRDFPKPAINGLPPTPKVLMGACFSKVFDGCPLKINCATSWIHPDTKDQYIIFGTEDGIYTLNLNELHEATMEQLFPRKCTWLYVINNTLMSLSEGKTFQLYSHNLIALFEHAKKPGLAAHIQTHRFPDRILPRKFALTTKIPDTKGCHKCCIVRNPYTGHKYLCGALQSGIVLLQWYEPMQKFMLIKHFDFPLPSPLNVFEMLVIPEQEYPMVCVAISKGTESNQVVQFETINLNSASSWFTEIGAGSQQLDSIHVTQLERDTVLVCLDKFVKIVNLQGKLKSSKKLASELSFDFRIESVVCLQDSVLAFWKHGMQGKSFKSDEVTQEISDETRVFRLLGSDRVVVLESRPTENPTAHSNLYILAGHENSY
Source text: as §1

Sequence of MAPKAP-K3 (Q16644 whole entry, species assumed): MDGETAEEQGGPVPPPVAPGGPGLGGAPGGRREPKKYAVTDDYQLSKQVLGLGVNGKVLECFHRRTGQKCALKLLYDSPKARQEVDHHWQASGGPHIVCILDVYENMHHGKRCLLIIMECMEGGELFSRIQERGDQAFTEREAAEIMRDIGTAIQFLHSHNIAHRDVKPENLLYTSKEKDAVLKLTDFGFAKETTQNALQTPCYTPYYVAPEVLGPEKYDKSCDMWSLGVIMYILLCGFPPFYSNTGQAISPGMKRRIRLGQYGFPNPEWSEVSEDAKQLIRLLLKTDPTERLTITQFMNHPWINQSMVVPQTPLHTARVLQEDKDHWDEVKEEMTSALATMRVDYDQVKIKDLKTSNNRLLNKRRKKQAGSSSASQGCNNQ

O=C(Nc1nc2ccc(O)cc2s1)c1ccncc1 [Compound 08-42]
residual kinase activity, MAPKAP-K3 (MAPKAP-K3): 51
residual kinase activity, DDR2 (DDR2): 89
residual kinase activity, MARK2 (MARK2): 67
residual kinase activity, TLK1 (TLK1): 97
residual kinase activity, BRSK1 (BRSK1): 56
residual kinase activity, CK1γ2 (CK1γ2): 62
residual kinase activity, MAP4K5 (MAP4K5): 67

O=C(Nc1nc2ccc(O)cc2s1)c1cccnc1 [Compound 08-44]
residual kinase activity, MAPKAP-K3 (MAPKAP-K3): 38
residual kinase activity, DDR2 (DDR2): 93
residual kinase activity, MARK2 (MARK2): 74
residual kinase activity, TLK1 (TLK1): 90
residual kinase activity, BRSK1 (BRSK1): 45
residual kinase activity, CK1γ2 (CK1γ2): 20
residual kinase activity, MAP4K5 (MAP4K5): 81
